Biological target: T1, Bcl-2 protein (Recombinant Human Bcl-2 Protein) (Homo sapiens, UniProt P10415)
T1 construct: purchased Novus NBP2-34889
Experiment: Binding evaluation of mixture library compounds to Bcl-2 using AS-MS (affinity selection mass spectrometry)
Details: AS-MS on the mixture of 1200 library compounds, ASMS Ratio(%)=(A−C)/B×100; for ASMS ratio (%) n = 1: replicate n = 1; for ASMS ratio (%) n = 2: replicate n = 2
Outline: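 Pooled library of ~1200 compounds ([…] each, final) incubated with recombinant human Bcl-2 (20 μM final) in Tris-HCl pH 7.4, NaCl, Tween-20, DTT buffer, dark, 23° C., 1 h. Bound fraction recovered by SEC spin column, organic extraction, reversed-phase LC/MS. ASMS Ratio (%) = (A−C)/B×100 versus protein-free standard and SEC blank.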

T1 sequence (P10415 whole entry): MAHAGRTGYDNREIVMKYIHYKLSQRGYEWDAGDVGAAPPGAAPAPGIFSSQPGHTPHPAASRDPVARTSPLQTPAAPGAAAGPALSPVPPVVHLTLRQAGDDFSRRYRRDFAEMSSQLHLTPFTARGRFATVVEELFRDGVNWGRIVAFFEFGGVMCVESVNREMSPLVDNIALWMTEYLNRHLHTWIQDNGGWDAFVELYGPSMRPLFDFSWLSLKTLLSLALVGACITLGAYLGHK

SMILES | ASMS ratio (%) n = 1 [%] | ASMS ratio (%) n = 2 [%]
CCOc1cncc(-c2ccc(CN3CCN(c4ccc(C(=O)N(C)CC56CC7CC(CC(C7)C5)C6)nn4)CC3)cc2F)c1 [B3A078-01, N-(1-Adamantylmethyl)-6-[4-[[4-(5-ethoxypyridin-3-yl)-3-fluorophenyl]methyl]piperazin-1-yl]-N-methylpyridazine-3-carboxamide] | 4.5 | −1.5
CCOc1cccc(-c2ccc(CN3CCN(c4ccc(C(=O)N(C)CC56CC7CC(CC(C7)C5)C6)nn4)CC3)c(OC)c2)c1 [B3A079-01, N-(1-Adamantylmethyl)-6-[4-[[4-(3-ethoxyphenyl)-2-methoxyphenyl]methyl]piperazin-1-yl]-N-methylpyridazine-3-carboxamide] | −5.8 | 5.4
CCOc1cncc(-c2ccc(CN3CCN(c4ccc(C(=O)N(C)CC56CC7CC(CC(C7)C5)C6)nn4)CC3)c(OC)c2)c1 [B3A080-01, N-(1-Adamantylmethyl)-6-[4-[[4-(5-ethoxypyridin-3-yl)-2-methoxyphenyl]methyl]piperazin-1-yl]-N-methylpyridazine-3-carboxamide] | 1.7 | −1.8
CCOc1cccc(-c2cc(CN3CCN(c4ccc(C(=O)N(C)CC56CC7CC(CC(C7)C5)C6)nn4)CC3)cc(OCC)c2)c1 [B3A081-01, N-(1-Adamantylmethyl)-6-[4-[[3-ethoxy-5-(3-ethoxyphenyl)phenyl]methyl]piperazin-1-yl]-N-methylpyridazine-3-carboxamide] | 13.4 | −14.2
CCOc1cncc(-c2cc(CN3CCN(c4ccc(C(=O)N(C)CC56CC7CC(CC(C7)C5)C6)nn4)CC3)cc(OCC)c2)c1 [B3A082-01, N-(1-Adamantylmethyl)-6-[4-[[3-ethoxy-5-(5-ethoxypyridin-3-yl)phenyl]methyl]piperazin-1-yl]-N-methylpyridazine-3-carboxamide] | −0.9 | 4.4
CCOc1cccc(-c2cc(CN3CCN(c4ccc(C(=O)N(C)CC56CC7CC(CC(C7)C5)C6)nn4)CC3)cc(OC(C)C)c2)c1 [B3A083-01, N-(1-Adamantylmethyl)-6-[4-[[3-(3-ethoxyphenyl)-5-propan-2-yloxyphenyl]methyl]piperazin-1-yl]-N-methylpyridazine-3-carboxamide] | 3.9 | −18.6
CCOc1cncc(-c2cc(CN3CCN(c4ccc(C(=O)N(C)CC56CC7CC(CC(C7)C5)C6)nn4)CC3)cc(OC(C)C)c2)c1 [B3A084-01, N-(1-Adamantylmethyl)-6-[4-[[3-(5-ethoxypyridin-3-yl)-5-propan-2-yloxyphenyl]methyl]piperazin-1-yl]-N-methylpyridazine-3-carboxamide] | −17.6 | −7.4
CCOc1cccc(-c2cc(OC)c(CN3CCN(c4ccc(C(=O)N(C)CC56CC7CC(CC(C7)C5)C6)nn4)CC3)c(OC)c2)c1 [B3A085-01, N-(1-Adamantylmethyl)-6-[4-[[4-(3-ethoxyphenyl)-2,6-dimethoxyphenyl]methyl]piperazin-1-yl]-N-methylpyridazine-3-carboxamide] | 5.3 | −7.1
CCOc1cncc(-c2cc(OC)c(CN3CCN(c4ccc(C(=O)N(C)CC56CC7CC(CC(C7)C5)C6)nn4)CC3)c(OC)c2)c1 [B3A086-01, N-(1-Adamantylmethyl)-6-[4-[[4-(5-ethoxypyridin-3-yl)-2,6-dimethoxyphenyl]methyl]piperazin-1-yl]-N-methylpyridazine-3-carboxamide] | −2.7 | −1.9
CCOc1cccc(-c2cc(CN3CCN(c4ccc(C(=O)N(C)CC56CC7CC(CC(C7)C5)C6)nn4)CC3)cc(C(F)(F)F)c2)c1 [B3A087-01, N-(1-Adamantylmethyl)-6-[4-[[3-(3-ethoxyphenyl)-5-(trifluoromethyl)phenyl]methyl]piperazin-1-yl]-N-methylpyridazine-3-carboxamide] | 0.4 | 1.4
CCOc1cncc(-c2cc(CN3CCN(c4ccc(C(=O)N(C)CC56CC7CC(CC(C7)C5)C6)nn4)CC3)cc(C(F)(F)F)c2)c1 [B3A088-01, N-(1-Adamantylmethyl)-6-[4-[[3-(5-ethoxypyridin-3-yl)-5-(trifluoromethyl)phenyl]methyl]piperazin-1-yl]-N-methylpyridazine-3-carboxamide] | 2.5 | 2.4
CCOc1cccc(-c2cc(CN3CCN(c4ccc(C(=O)N(C)CC56CC7CC(CC(C7)C5)C6)nn4)CC3)cc(OC(F)(F)F)c2)c1 [B3A089-01, N-(1-Adamantylmethyl)-6-[4-[[3-(3-ethoxyphenyl)-5-(trifluoromethoxy)phenyl]methyl]piperazin-1-yl]-N-methylpyridazine-3-carboxamide] | −5.5 | −7.2
CCOc1cncc(-c2cc(CN3CCN(c4ccc(C(=O)N(C)CC56CC7CC(CC(C7)C5)C6)nn4)CC3)cc(OC(F)(F)F)c2)c1 [B3A090-01, N-(1-Adamantylmethyl)-6-[4-[[3-(5-ethoxypyridin-3-yl)-5-(trifluoromethoxy)phenyl]methyl]piperazin-1-yl]-N-methylpyridazine-3-carboxamide] | 5.8 | −0.2
CCOc1cccc(-c2ccc(CN3CCN(c4ccc(C(=O)N(C)CC56CC7CC(CC(C7)C5)C6)nn4)CC3)c3ccccc23)c1 [B3A091-01, N-(1-Adamantylmethyl)-6-[4-[[4-(3-ethoxyphenyl)naphthalen-1-yl]methyl]piperazin-1-yl]-N-methylpyridazine-3-carboxamide] | −1.0 | −16.5
CCOc1cncc(-c2ccc(CN3CCN(c4ccc(C(=O)N(C)CC56CC7CC(CC(C7)C5)C6)nn4)CC3)c3ccccc23)c1 [B3A092-01, N-(1-Adamantylmethyl)-6-[4-[[4-(5-ethoxypyridin-3-yl)naphthalen-1-yl]methyl]piperazin-1-yl]-N-methylpyridazine-3-carboxamide] | 1.1 | −1.9
CCOc1cccc(-c2csc(CN3CCN(c4ccc(C(=O)N(C)CC56CC7CC(CC(C7)C5)C6)nn4)CC3)c2)c1 [B3A093-01, N-(1-Adamantylmethyl)-6-[4-[[4-(3-ethoxyphenyl)thiophen-2-yl]methyl]piperazin-1-yl]-N-methylpyridazine-3-carboxamide] | −3.8 | 0.0
CCOc1cncc(-c2csc(CN3CCN(c4ccc(C(=O)N(C)CC56CC7CC(CC(C7)C5)C6)nn4)CC3)c2)c1 [B3A094-01, N-(1-Adamantylmethyl)-6-[4-[[4-(5-ethoxypyridin-3-yl)thiophen-2-yl]methyl]piperazin-1-yl]-N-methylpyridazine-3-carboxamide] | 3.7 | 0.5
CCOc1cccc(C#Cc2ccccc2CN2CCN(c3ccc(C(=O)N(C)CC45CC6CC(CC(C6)C4)C5)nn3)CC2)c1 [B3A095-01, N-(1-Adamantylmethyl)-6-[4-[[2-[2-(3-ethoxyphenyl)ethynyl]phenyl]methyl]piperazin-1-yl]-N-methylpyridazine-3-carboxamide] | −4.9 | −3.5
CCOc1cncc(C#Cc2ccccc2CN2CCN(c3ccc(C(=O)N(C)CC45CC6CC(CC(C6)C4)C5)nn3)CC2)c1 [B3A096-01, N-(1-Adamantylmethyl)-6-[4-[[2-[2-(5-ethoxypyridin-3-yl)ethynyl]phenyl]methyl]piperazin-1-yl]-N-methylpyridazine-3-carboxamide] | 7.7 | 2.4
CCOc1cccc(-c2ccc(C(C)N3CCN(c4ccc(C(=O)N(C)CC56CC7CC(CC(C7)C5)C6)cc4)CC3)cc2)c1 (centres unmarked) [B3A097-01, N-(1-Adamantylmethyl)-4-[4-[1-[4-(3-ethoxyphenyl)phenyl]ethyl]piperazin-1-yl]-N-methylbenzamide] | 1.8 | −5.9
CCOc1cncc(-c2ccc(C(C)N3CCN(c4ccc(C(=O)N(C)CC56CC7CC(CC(C7)C5)C6)cc4)CC3)cc2)c1 (centres unmarked) [B3A098-01, N-(1-Adamantylmethyl)-4-[4-[1-[4-(5-ethoxypyridin-3-yl)phenyl]ethyl]piperazin-1-yl]-N-methylbenzamide] | 0.6 | 3.0
CCOc1cccc(-c2ccc(C(C)N3CCN(c4ccc(C(=O)N(C)CC56CC7CC(CC(C7)C5)C6)cc4)CC3)c(F)c2)c1 (centres unmarked) [B3A099-01, N-(1-Adamantylmethyl)-4-[4-[1-[4-(3-ethoxyphenyl)-2-fluorophenyl]ethyl]piperazin-1-yl]-N-methylbenzamide] | −2.6 | 25.2
CCOc1cncc(-c2ccc(C(C)N3CCN(c4ccc(C(=O)N(C)CC56CC7CC(CC(C7)C5)C6)cc4)CC3)c(F)c2)c1 (centres unmarked) [B3A100-01, N-(1-Adamantylmethyl)-4-[4-[1-[4-(5-ethoxypyridin-3-yl)-2-fluorophenyl]ethyl]piperazin-1-yl]-N-methylbenzamide] | −39.8 | 0.0
CCOc1cccc(-c2csc(C(=O)N3CCN(c4ccc(C(=O)N(CC)CC)nn4)CC3)c2)c1 [B4J001-01, 6-[4-[4-(3-Ethoxyphenyl)thiophene-2-carbonyl]piperazin-1-yl]-N,N-diethylpyridazine-3-carboxamide] | 0.0 | 0.0
CCOc1cncc(-c2csc(C(=O)N3CCN(c4ccc(C(=O)N(CC)CC)nn4)CC3)c2)c1 [B4J002-01, 6-[4-[4-(5-Ethoxypyridin-3-yl)thiophene-2-carbonyl]piperazin-1-yl]-N,N-diethylpyridazine-3-carboxamide] | −2.7 | 2.1

— US20240132431A1, “METHOD FOR ALKYLATING ACIDIC FUNCTIONAL GROUP” (Chugai Seiyaku Kabushiki Kaisha, priority 2021, published 2024)
